The subject of data set [1] is Mus musculus. The data set is described as follows: Effect on CNS in Mus musculus Swiss (mouse) assessed as reversal of resperine-induced sedation at 75 umol/kg, ip. The data set is classed as ADME, organism-based, Central nervous system. Conditions: in vivo.
Data set [2] concerns Mus musculus. The data set is described as follows: Antidepressant activity in Mus musculus Swiss (mouse) at 75 umol/kg, ip. The data set is classed as functional, organism-based.
Data set [3] has as its system Mus musculus. Nature of the data set: Effect on CNS in Mus musculus Swiss (mouse) assessed as reversal of resperine-induced ptosis at 75 umol/kg, ip. The data set is classed as ADME, organism-based, Central nervous system. Conditions: in vivo.
Data set [4] deals with Mus musculus. Nature of the data set: Anorexigenic activity in Mus musculus Swiss (mouse) at 75 umol/kg, ip measured for 15 min relative to control. The data set is classed as functional.
For data set [5], the system named is Mus musculus. Nature of the data set: Effect on CNS in Mus musculus Swiss (mouse) assessed as gross behavioural effects at 75 umol/kg, ip. The data set is classed as ADME, organism-based, Central nervous system. Conditions: in vivo.

Calls of active or inactive are those of the source. No cut-off for these calls is given here.

In the case of `CN(CCC(Oc1ccc(C(F)(F)F)cc1)c1ccccc1)CC(O)COc1ccc2ccccc2c1` (stereo not drawn), the Activity result in the data set with Mus musculus [1] is on record as “Non-toxic”; in the data set with Mus musculus [3], “Non-toxic”; with Mus musculus [4] it was 40%; with Mus musculus [5], “Non-toxic”. Moreover, the outcome in the data set on Mus musculus [2] was inactive.
`CCNc1ccc(OCC(O)CN(C)CCC(Oc2ccc(C(F)(F)F)cc2)c2ccccc2)cc1` (stereo not drawn): the Activity entry with Mus musculus [1] is “Non-toxic”; with Mus musculus [3] it was “Non-toxic”; with Mus musculus [4], 60%; with Mus musculus [5], “Non-toxic”. The outcome in the data set on Mus musculus [2] was inactive.
As for `CN(CCC(Oc1ccc(C(F)(F)F)cc1)c1ccccc1)CC(O)COc1cccc(C(F)(F)F)c1` (stereo not drawn), the Activity result was “Non-toxic” in the data set on Mus musculus [1], “Non-toxic” in the data set with Mus musculus [3], 32% with Mus musculus [4] and “Non-toxic” with Mus musculus [5]. Besides, in the data set on Mus musculus [2], the result was inactive.
As for `CC(=O)c1ccc(OCC(O)CN(C)CCC(Oc2ccc(C(F)(F)F)cc2)c2ccccc2)cc1` (stereo not drawn), the Activity entry in the data set on Mus musculus [1] is “Non-toxic”; in the data set on Mus musculus [3], “Non-toxic”; in the data set with Mus musculus [4] it was 32%; in the data set with Mus musculus [5], “Non-toxic”. Further, in the data set on Mus musculus [2], the outcome was inactive.
With `CN(CCC(Oc1ccc(C(F)(F)F)cc1)c1ccccc1)CC(O)COc1ccc(Br)cc1` (stereo not drawn), the Activity entry was “Non-toxic” in the data set with Mus musculus [1], “Non-toxic” in the data set on Mus musculus [3], 60% in the data set on Mus musculus [4] and “Non-toxic” with Mus musculus [5]. Besides, in the data set with Mus musculus [2], the outcome was inactive.
For `CNCCC(Oc1ccc(C(F)(F)F)cc1)c1ccccc1` (stereo not drawn) [FLUOXETINE], the Activity with Mus musculus [1] was 100%; with Mus musculus [3] it was 100%; in the data set with Mus musculus [4], 72%.
As for `CN(CCC(Oc1ccc(C(F)(F)F)cc1)c1ccccc1)CC(O)COc1ccc(C(F)(F)F)cc1` (stereo not drawn), the Activity result in the data set with Mus musculus [1] is “Non-toxic”; with Mus musculus [3], “Non-toxic”; in the data set on Mus musculus [4], 32%; in the data set on Mus musculus [5] it was “Non-toxic”. The result in the data set with Mus musculus [2] was inactive.
Turning to `COc1ccc(OCC(O)CN(C)CCC(Oc2ccc(C(F)(F)F)cc2)c2ccccc2)cc1` (stereo not drawn), the Activity entry in the data set on Mus musculus [1] was “Non-toxic”; with Mus musculus [3], “Non-toxic”; in the data set on Mus musculus [4], 52%; with Mus musculus [5], “Non-toxic”. Moreover, in the data set on Mus musculus [2], the result was inactive.
For the compound `CN(CCC(Oc1ccc(C(F)(F)F)cc1)c1ccccc1)CC(O)COc1ccccc1` (stereo not drawn), the Activity result in the data set with Mus musculus [1] is “Non-toxic”; in the data set on Mus musculus [3], “Non-toxic”; in the data set with Mus musculus [4] it was 52%; in the data set with Mus musculus [5] it was “Non-toxic”. Also, the result in the data set on Mus musculus [2] was inactive.
Take `CC(=O)Nc1ccc(OCC(O)CN(C)CCC(Oc2ccc(C(F)(F)F)cc2)c2ccccc2)cc1` (stereo not drawn): the Activity result in the data set with Mus musculus [1] is reported as “Non-toxic”; in the data set with Mus musculus [3] it was “Non-toxic”; with Mus musculus [4] it was 60%; in the data set with Mus musculus [5] it was “Non-toxic”. The result in the data set with Mus musculus [2] was inactive.
As to `CN(CCC(Oc1ccc(C(F)(F)F)cc1)c1ccccc1)CC(O)COc1ccc(Cl)cc1` (stereo not drawn), the Activity entry is reported as “Non-toxic” in the data set with Mus musculus [1], “Non-toxic” in the data set with Mus musculus [3], 28% in the data set with Mus musculus [4] and “Non-toxic” in the data set on Mus musculus [5]. Besides, the outcome in the data set on Mus musculus [2] was inactive.
Take `CCC(=O)c1ccc(OCC(O)CN(C)CCC(Oc2ccc(C(F)(F)F)cc2)c2ccccc2)cc1` (stereo not drawn): the Activity entry with Mus musculus [1] was “Non-toxic”; in the data set with Mus musculus [3], “Non-toxic”; in the data set on Mus musculus [4] it was 36%; in the data set with Mus musculus [5] it was “Non-toxic”. Besides, the result in the data set with Mus musculus [2] was inactive.
As to `COc1ccccc1OCC(O)CN(C)CCC(Oc1ccc(C(F)(F)F)cc1)c1ccccc1` (stereo not drawn), the Activity entry is recorded as “Non-toxic” with Mus musculus [1], “Non-toxic” with Mus musculus [3], 56% with Mus musculus [4] and “Non-toxic” in the data set on Mus musculus [5]. Besides, the outcome with Mus musculus [2] was inactive.
`CN(CCC(Oc1ccc(C(F)(F)F)cc1)c1ccccc1)CC(O)COc1ccc(C#N)cc1` (stereo not drawn): the Activity entry with Mus musculus [1] is listed as “Non-toxic”; in the data set with Mus musculus [3], “Non-toxic”; with Mus musculus [4], 72%; in the data set on Mus musculus [5], “Non-toxic”. For the same compound, in the data set on Mus musculus [2], the result was Active.
For `CN(CCC(Oc1ccc(C(F)(F)F)cc1)c1ccccc1)CC(O)COc1ccc(C=O)cc1` (stereo not drawn), the Activity entry was “Non-toxic” in the data set on Mus musculus [1], “Non-toxic” in the data set on Mus musculus [3], 40% in the data set on Mus musculus [4] and “Non-toxic” in the data set on Mus musculus [5]. The result in the data set on Mus musculus [2] was inactive.
Regarding `Cc1ccccc1OCC(O)CN(C)CCC(Oc1ccc(C(F)(F)F)cc1)c1ccccc1` (stereo not drawn), the Activity result in the data set on Mus musculus [1] is reported as “Non-toxic”; in the data set with Mus musculus [3] it was “Non-toxic”; with Mus musculus [4], 60%; with Mus musculus [5] it was “Non-toxic”. Besides, in the data set on Mus musculus [2], the outcome was inactive.

Source of the values: ChEMBL document CHEMBL3045599, “SYNTHESIS, ANOREXIGENIC ACTIVITY AND QSAR OF SUBSTITUTED ARYLOXYPROPANOLAMINES” (Med Chem Res, 2004).
